Like-named read-outs stand apart in the source and are kept apart here.
Assays:
physchem = assay: physchem; design: chemical stability in PBS at 37 °C, HPLC-MS/MS, half-life from first-order degradation plot; settings: PBS
Description: (§1) In these assays, the variation of analytes concentration at four different incubation times both in PBS and in human plasma samples was monitored to evaluate their susceptibility toward spontaneous or enzymatic hydrolysis, respectively. By plotting any variation of analyte concentration vs. the incubation time, the corresponding degradation profiles in tested matrices were obtained. The analyte concentration (1 µM) used during the stability tests is generally smaller than its Michaelis–Menten constant (KM), and the enzymatic degradation rate is described by a first-order kinetic. Therefore, by plotting the natural logarithm of the quantitative data versus the incubation time, a linear function can be used, and its slope represents the degradation rate (k). Accordingly, with the linear function, the half-life (t1/2) of each tested compound can be calculated as follows: t1/2=[…] The plots of the natural logarithm of the quantitative data versus the incubation time of all the studied compounds were analyzed. […] Parameters beyond this value will be indicated as >120 min. […] The degradation plots in PBS and human plasma of our ester compounds are reported in Supporting Information (Figures S1–S6 and Table S1).

in vitro = assay: in vitro; design: stability in human plasma at 37 °C, HPLC-MS/MS, half-life from first-order degradation plot; settings: plasma; human plasma; read-out: H-pl
Description: as §1

Panx-1 [1] = molecular target: T1, Panx-1 (Mus musculus, UniProt Q9JIP4); assay: two-electrode voltage clamp, Xenopus laevis oocytes, single dose […]; type: cell-based
T1 construct: gene Panx1
T1 sequence (Q9JIP4 whole entry): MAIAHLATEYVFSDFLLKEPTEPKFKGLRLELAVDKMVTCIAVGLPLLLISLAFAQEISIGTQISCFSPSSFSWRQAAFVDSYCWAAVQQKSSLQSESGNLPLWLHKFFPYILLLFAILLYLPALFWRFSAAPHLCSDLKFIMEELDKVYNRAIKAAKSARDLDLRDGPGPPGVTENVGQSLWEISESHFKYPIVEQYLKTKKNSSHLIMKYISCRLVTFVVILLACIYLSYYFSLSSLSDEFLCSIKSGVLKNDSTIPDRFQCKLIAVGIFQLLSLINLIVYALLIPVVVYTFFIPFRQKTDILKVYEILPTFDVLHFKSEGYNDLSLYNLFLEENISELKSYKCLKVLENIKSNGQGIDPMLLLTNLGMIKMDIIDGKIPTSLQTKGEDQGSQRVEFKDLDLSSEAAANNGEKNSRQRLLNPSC

Panx-1 [2] = molecular target: T1, Panx-1; assay: two-electrode voltage clamp, Xenopus laevis oocytes expressing mouse pannexin1; type: cell-based
Panx-1 [3] = molecular target: T1, Panx-1; assay: two-electrode voltage clamp in oocytes, […] CBX applied in each experiment; type: cell-based; settings: read-out: % inhibition at 100 μM

| half-life at 1 µM (physchem) | half-life at 1 µM (in vitro) | IC50 (Panx-1 [2]) | SMILES | other results |
| --- | --- | --- | --- | --- |
| > 2 h | > 2 h | – | CCOC(=O)c1cn(CCc2ccccc2)c2ccc([N+](=O)[O-])cc2c1=O [4b, Ethyl 6-nitro-4-oxo-1-phenethyl-1,4-dihydroquinoline-3-carboxylate] | – |
| > 2 h | > 2 h | – | CCOC(=O)c1cn(CCCCc2ccccc2)c2ccc([N+](=O)[O-])cc2c1=O [4d, Ethyl 6-nitro-4-oxo-1-(4-phenylbutyl)-1,4-dihydroquinoline-3-carboxylate] | – |
| > 2 h | > 2 h | – | CCOC(=O)c1cn(CCCCCc2ccccc2)c2ccc([N+](=O)[O-])cc2c1=O [4e, Ethyl 6-nitro-4-oxo-1-(5-phenylpentyl)-1,4-dihydroquinoline-3-carboxylate] | – |
| > 2 h | > 2 h | – | CCOC(=O)c1cn(Cc2ccc(S(N)(=O)=O)cc2)c2ccc([N+](=O)[O-])cc2c1=O [4f, Ethyl 6-nitro-4-oxo-1-(4-sulfamoylbenzyl)-1,4-dihydroquinoline-3-carboxylate] | – |
| – | – | – | O=C(O)c1cn(Cc2ccccc2)c2ccc([N+](=O)[O-])cc2c1=O [6a, 1-Benzyl-6-nitro-4-oxo-1,4-dihydroquinoline-3-carboxylic acid] | inhibition at 50 µM (Panx-1 [1]; read-out: TABLE 1): 53 ± 2.9% |
| – | – | 3 µM | NS(=O)(=O)c1ccc(Cn2cc(C(=O)O)c(=O)c3cc([N+](=O)[O-])ccc32)cc1 [6f, 6-Nitro-4-oxo-1-(4-sulfamoylbenzyl)-1,4-dihydroquinoline-3-carboxylic acid] | – |
| – | – | 1.5 µM | O=C(O)c1ccc(Cn2cc(C(=O)O)c(=O)c3cc([N+](=O)[O-])ccc32)cc1 [6g, 1-(4-Carboxybenzyl)-6-nitro-4-oxo-1,4-dihydroquinoline-3-carboxylic acid] | – |
| – | – | – | CCCNS(=O)(=O)c1ccc(Nc2c(C(=O)O)cnc3ccccc23)cc1 [13d, 4-[4-(N-Propylsulfamoyl)phenyl]aminoquinoline-3-carboxylic acid] | inhibition at 50 µM (Panx-1 [1]; read-out: TABLE 2): 66 ± 4% |
| – | – | 4.2 µM | CCCN(CCC)S(=O)(=O)c1ccc(Nc2c(C(=O)O)cnc3ccccc23)cc1 [13e, 4-[4-(N,N-Dipropylsulfamoyl)phenyl]aminoquinoline-3-carboxylic acid] | – |
| – | – | 15.5 µM | O=C(O)c1ccc(Nc2c(C(=O)O)cnc3ccccc23)cc1 [13g, 4-[(4-Carboxyphenyl)amino]quinoline-3-carboxylic acid] | – |
| – | – | – | CC1(C)[C@@H](OC(=O)CCC(=O)O)CC[C@]2(C)[C@H]3C(=O)C=C4[C@@H]5C[C@@](C)(C(=O)O)CC[C@]5(C)CC[C@@]4(C)[C@]3(C)CC[C@@H]12 [CBX, carbenoxolone] | inhibition at 100 µM (Panx-1 [3]): 100% |
| – | – | – | Nc1ccc2c(c1)c(=O)c(C(=O)O)cn2Cc1ccccc1 [compound 8, 6-Amino-1-benzyl-4-oxo-1,4-dihydroquinoline-3-carboxylic acid] | inhibition at 50 µM (Panx-1 [1]; read-out: TABLE 1): 57 ± 5.9% |

— PMC9916356, “Design, Synthesis and Pharmacological Evaluation of New Quinoline-Based Panx-1 Channel Blockers” (International Journal of Molecular Sciences, 2023)
